“Also recorded” adds a separate entry of the source.
Assays:
[1] = Bodyweight change and food intake of db/db mice over the 28 day study (Example 1); format: in vivo; settings: male db/db mice, 10 mg/kg daily
Procedure: (§1) The phytocannabinoids CBD (10 mg/kg) and THCV (10 mg/kg) were tested along with AM 251 (10 mg/kg) which was used as a positive control.
(§2) On day 1 dosing commenced for groups A to D as outlined in Table 1.1 above. Animals were dosed daily at 17:00.

pancreatic islet cells = assay: Histology/morphology of insulin-stained pancreas in diabetic db/db mice (Example 1); format: in vivo; settings: male db/db mice, 10 mg/kg daily
Procedure: as §1
At the start of the study the Group E animals were sacrificed and a terminal blood sample was taken. In addition four of the animals pancreases were sampled for determination of β-cell area, islet size and β-cell mass by […].
as §2
At the end of the study the animals were sacrificed and a terminal blood sample was taken. In addition four of the animals pancreases were sampled for determination of islet β-cell area, islet size and islet β-cell mass by […].
The pancreases were stained for insulin and the pancreatic islet cells were examined under a microscope to determine the amount of insulin in the cells.

[2] = Blood samples for glucose and insulin in db/db mice (Example 1); format: in vivo
Procedure: as §1, §2

[3] = Oral glucose tolerance test in subjects with Type 2 diabetes at Visit 5 (Example 3 pilot study); format: in vivo, human; settings: 5 mg THCV twice daily, Visit 5 (Week 13), compared to placebo
Description: There were four arms in this study plus a placebo comparator. These were a 1:1 and 20:1 ratio of CBD:THCV, CBD alone and THCV alone. Assessment of the impact of each treatment on different parameters was made. Measurements were taken of high density lipoprotein (HDL) cholesterol, total cholesterol, low density lipoprotein (LDL) cholesterol, HDL/LDL ratio, serum triglycerides, apolipoprotein markers (Apo A & Apo B) and determination of ApoA/Apo B ratio.
(§3) Other measurements including: lipid parameters; glucose control (fasting plasma glucose, glucose tolerance, serum fructosamine, glycosylated haemoglobin A1c (HbA1c) (whole blood)); Insulin sensitivity (insulin resistance); body weight & body mass index (BMI); adipose tissue distribution (total % body fat content, waist circumference, neck circumference, waist-to-hip ratio, visceral adiposity, liver triglyceride content); and appetite 11 point numerical rating scale (0-10 NRS).
(§4) The study took place over 15-19 weeks (1-5 week baseline and 13 week treatment period and 1 week follow-up), and was a multicentre, randomised, double blind, placebo controlled, parallel group pilot study which evaluated the test compounds on lipid parameters in subjects with Type 2 diabetes.
Further study visits took place at the end of Week 4 of treatment (Visit 3, Day 29), and again at the end of treatment at Week 13 (Visit 5, Day 92). […]

[4] = HOMA2 insulin sensitivity, change from baseline, subjects with Type 2 diabetes (Example 3); format: in vivo, human; settings: 5 mg THCV twice daily, end of study period, FIG. 16
Description: as §3, §4
(§5) Further study visits took place at the end of Week 4 of treatment (Visit 3, Day 29), and again at the end of treatment at Week 13 (Visit 5, Day 92). Subjects were asked to fast overnight before Visits 1 (or 1B), 2 and 5 (minimum 8 hours). A telephone assessment was also performed at Day 57 (Visit 4) and at Week 14 (Visit 6, Day 99) for safety follow-up.
(§6) As this was a pilot study, a formal sample size calculation was not required. Each treatment group consisted of 10 subjects. There was five treatment groups 1:1 and 20:1 ratio of CBD:THCV plus CBD alone, THCV alone and placebo. […]

beta cell function = assay: HOMA2 beta cell function, change from baseline, subjects with Type 2 diabetes (Example 3); format: in vivo, human; settings: 5 mg THCV twice daily, end of study period, FIG. 17
Description: as §3, §4, §5, §6

[5] = test system: Glucagon-Like Peptide 1 (GLP-1); assay: Serum glucagon-like peptide 1 (GLP-1) levels, change from baseline, subjects with Type 2 diabetes (Example 3); format: in vivo, human; settings: oral 5 mg THCV twice daily, FIG. 18
Description: Laboratory assessments included; physical examination; markers of vascular function; markers of adipocyte function including leptin and adiponectin; markers of inflammation including cytokines; retinol binding protein (RBP4) concentration; orexin type A (Orexin A) concentration; gut signalling hormone (Gastric Inhibitory Peptide (GIP), Glucagon-like peptide-1 (GLP-1), ghrelin) concentrations; ketone bodies; and endocannabinoid plasma levels.
as §4, §5
As this was a pilot study, a formal sample size calculation was not required. Each treatment group consisted of 10 subjects. There was five treatment groups 1:1 and 20:1 ratio of CBD:THCV plus CBD alone, THCV alone and placebo.

CB-1 receptor = CB-1 receptor (Homo sapiens, UniProt P21554); settings: receptor binding studies, GB 2434097; cited from earlier work
Sequence of CB-1 receptor (P21554 whole entry): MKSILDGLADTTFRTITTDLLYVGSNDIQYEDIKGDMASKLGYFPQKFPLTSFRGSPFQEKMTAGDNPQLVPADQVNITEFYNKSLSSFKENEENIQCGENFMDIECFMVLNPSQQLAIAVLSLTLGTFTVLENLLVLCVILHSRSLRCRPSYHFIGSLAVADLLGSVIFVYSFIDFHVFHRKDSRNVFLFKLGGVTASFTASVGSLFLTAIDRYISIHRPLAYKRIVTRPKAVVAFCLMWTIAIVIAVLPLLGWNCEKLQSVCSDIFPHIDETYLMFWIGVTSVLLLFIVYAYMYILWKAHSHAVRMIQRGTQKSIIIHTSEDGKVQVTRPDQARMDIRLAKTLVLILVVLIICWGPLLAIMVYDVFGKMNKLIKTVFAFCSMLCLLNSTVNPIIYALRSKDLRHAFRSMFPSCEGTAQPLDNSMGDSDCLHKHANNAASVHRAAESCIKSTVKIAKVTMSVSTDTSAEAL

| SMILES | food intake [1] | weight gain (bodyweight change over the study period) ([1]; FIG. 6) | retention of insulin in the pancreatic islet (insulin staining, histology) (pancreatic islet cells; 28 day study, FIGS. 2-5, 10 mg/kg) | pancreatic islet beta cell mass (morphological analysis) (pancreatic islet cells; end of study, FIG. 8) | blood glucose concentration during a 24 hour period ([2]; male db/db mice, 10 mg/kg daily, FIG. 7) | reduction in blood glucose ([2]; male db/db mice, 10 mg/kg daily, conclusion of Example 1) | fasting insulin ([2]; rodent model of diabetes) | concentration of insulin during oral glucose tolerance test, mean change from baseline ([3]; FIG. 14) | concentration of blood glucose during oral glucose tolerance test, mean change from baseline ([3]; FIG. 15) | HOMA2 insulin sensitivity, mean change from baseline [4] | HOMA2 beta cell function, mean change from baseline (beta cell function) | change from baseline in mean serum GLP-1 levels [5] | CB-1 receptor pharmacology (CB-1 receptor) |
| --- | --- | --- | --- | --- | --- | --- | --- | --- | --- | --- | --- | --- | --- |
| Cc1c(C(=O)NN2CCCCC2)nn(-c2ccc(Cl)cc2Cl)c1-c1ccc(I)cc1 [AM 251] | slightly lower | – | – | – | – | – | – | – | – | – | – | – | – |
| C=C(C)[C@@H]1CCC(C)=C[C@H]1c1c(O)cc(CCCCC)cc1O [CBD, cannabidiol] | – | increased weight gain | – | – | – | – | – | – | – | – | – | – | – |
| CCCc1cc(O)c2c(c1)OC(C)(C)[C@@H]1CCC(C)=C[C@@H]21 [THCV, Tetrahydrocannabivarin] | slightly lower | – | greater retention of insulin in the pancreatic islet than both AM251 and CBD; also recorded: statistically more insulin present in the pancreatic islets | higher in the THCV treated animals than in the vehicle and CBD and AM251 treated groups | more controlled during a 24 hour period | without having a profound reduction in blood glucose | reduction in fasting insulin | increases over the first hour and then reduces down to the same level as the placebo after 2 hours | quickly reducing the blood glucose level compared to placebo | increased sensitivity to insulin | much increased beta cell function compared to all the other groups | highest increase in GLP-1 | neutral antagonist |
